Experimental data from PMC5340791, “New approaches for the reliable in vitro assessment of binding affinity based on high-resolution real-time data acquisition of radioligand-receptor binding kinetics” (EJNMMI Research, 2017).

Legend:
[1] = HPLC-based measurement of the logarithm of the octanol-water partition coefficient (HPLClogD7.4); type: physicochemical; details: pH 7.4, HPLC-based assay; mean ± SEM of three independent experiments
Procedure: The logarithm of the octanol-water partition coefficient of the A3R antagonists were determined at pH 7.4 by high-performance liquid chromatography (HPLC)-based assay (HPLClogD^7.4) modified from Donovan and Pescatore. Briefly, a mixture of two internal standards (toluene and triphenylene) with known logD values and defined retention times (k’) have been used. A3R antagonists were dissolved in methanol and injected onto a short polymeric ODP-50 column (20 × 4.0 mm, 5 μm pore size, Supelco, Bellefonte, PA, USA). A linear gradient from 10% methanol/90% phosphate buffer (25 mM, pH 7.4) to 100% methanol within 9.4 min at a flow rate of 1.5 mL/min were applied. Measurement and detection of the three retention times of toluene, triphenylene and A3R antagonists were performed at 260 and 285 nm. Between consecutive HPLC runs, 5 min for re-equilibration of the HPLC column were allowed. The logD values of the dedicated compounds were determined using the known logD values of triphenylene and toluene and the retention time of triphenylene, toluene and the unknown compounds according to the following formula:1 logPUnknown=logPtol−logPtriph*tUnknown+ttol*logPtriph−ttriph*logPtol/ttol−ttriph where “log P Unknown” is the logD value of the test compound and “t Unknown” the corresponding measured retention time of the dedicated substance. The logD values for the internal standards are abbreviated as “log P tol” (toluene) and “log P triph” (triphenylene), respectively. Measured retention times are indicated as “t tol” for toluene and “t triph” for triphenylene.

[2] = biological target: T1, human adenosine A3 receptor (CHO-K1-hA3R cells) (Homo sapiens, UniProt P0DMS8); experiment: Competitive real-time cell-binding studies (LigandTracer), displacement of [125I]-AB-MECA; details: 0.7 nM [125I]-AB-MECA, ambient temperature, Cheng-Prusoff, mean ± SEM, three independent experiments
T1 construct: expressed in transfected cells
T1 sequence (P0DMS8 1-318): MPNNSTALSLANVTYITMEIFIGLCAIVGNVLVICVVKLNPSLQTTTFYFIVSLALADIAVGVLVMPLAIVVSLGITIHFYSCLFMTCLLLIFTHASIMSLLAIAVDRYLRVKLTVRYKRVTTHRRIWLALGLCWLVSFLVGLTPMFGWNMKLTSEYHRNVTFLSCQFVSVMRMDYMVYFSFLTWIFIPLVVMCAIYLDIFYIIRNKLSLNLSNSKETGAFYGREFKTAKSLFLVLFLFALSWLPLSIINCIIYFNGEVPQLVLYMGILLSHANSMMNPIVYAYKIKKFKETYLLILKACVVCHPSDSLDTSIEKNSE
Procedure: The measurements were made according to the assay protocol as previously described above. […] The experiments were initiated with a baseline measurement (10–15 min). […] Inhibition of the radioligand was performed by adding different concentration series (1–500 nM) of unlabelled compounds (A3R antagonists) each after visual binding equilibrium. At least four different concentrations of competitor, spanning three orders of magnitude adjusted appropriately for the IC50 of each compound, were used. Unspecific binding was determined in the presence of a high concentration (0.5–100 μM) of the non-labelled competitor substance. The observed association phase of the radioligand and the dissociation phase of each consecutive concentration of the competitor substance were monitored in real-time until visual binding equilibrium was reached. All non-labelled compounds were initially dissolved in DMSO and diluted with deionized water to the final concentration, where the amount of DMSO never exceeded 5%. Cytophysiological conditions and cell attachment were examined continuously during the whole course of the experiment with the perimeter trace of the LigandTracer® software (version 1.0.1).
Raw data from the LigandTracer® measurements were analysed in GraphPad Prism 6.0 (GraphPad Software, Inc., San Diego, CA). Experiments were conducted at least as a triplicate with different batches of radioligand and biological target material to avoid systematic bias and to assure statistical certainty. […] Transformed data was analysed using “one-phase association” curve fitting algorithm as outlined in the following equation:2 Y=Y0+Plateau−Y0*1−e^−k*x where “x” is a given time and “Y” corresponds to the amount of radioligand binding for a dedicated time point. “Y 0” is the initial value of “Y” at the beginning of radioligand incubation and “plateau” indicates the maximum amount of the bound radioligand after equilibrium. “k” is the rate constant expressed in reciprocal units of “x”.
Transformed data were analysed by using “dissociation—one-phase exponential decay” curve fit as follows:3 Y=Y0−NS*e^−k*x+NS where “x” is a given time and “Y” corresponds to the amount of bound radioligand for a dedicated time point. “Y 0” is the initial value of “Y” at the beginning of each dissociation phase and “NS” indicates the steady state of radioligand binding in the presence of dedicated cold competitor after infinite time. “k” is the rate constant expressed in reciprocal units of “x”.
Equilibrium binding data determined in Eqs. (2) and (3) served as input parameters for the calculation of the IC50 using “log(inhibitor) vs. response—variable slope (four parameters)” nonlinear regression algorithm as described below:4 Y=Bottom+Top−Bottom/1+10^logIC50−C*HillSlope where “C” is the logarithm of the competitor concentration and “Y” reflects the dedicated amount of bound radioligand at equilibrium obtained from Eq. (3). “Top” indicates the maximum amount of radioligand binding (without any competitor) whereas the corresponding value is derived from Eq. (2). “Bottom” expresses the amount of unspecific radioligand binding in presence of a very high concentration of competitor. The dedicated value is determined by Eq. (3) and corresponds to the “NS” value of the last inhibitor concentration. The “HillSlope” reflects the slope factor, which indicates the steepness of the resulting inhibition curve. […] The resulting IC50 was converted into the K i using Cheng-Prusoff Eq. (3).

[3] = biological target: human A3R; design: method as in PMID 11462807, PMID 8190112, PMID 8576921; details: traditional binding assays, membranes from human A3R-transfected HEK-293 cells; ref [30], [32], [33]; read-out: Ki Literature; cited from earlier work
[4] = biological target: human A3R; details: traditional saturation binding assays, membranes from human A3R-transfected HEK-293 cells; ref [29]; read-out: K d (Reported affinity); cited from earlier work

Row | chromatographic logD [1] | Ki [2] [µM] | Compound | Ki [3] [µM] | Kd [4] [µM]
1 | 4.05 ± 0.36 | 0.00824 ± 0.00235 | CCOC(=O)c1c(-c2ccccc2)nc(CC)c(C(=O)SCCF)c1CC [FE@SUPPY:2, 5-ethyl 2,4-diethyl-3-((2-fluoroethyl)sulfanylcarbonyl)-6-phenylpyridine-5-carboxylate] |  | 
2 | 3.83 ± 0.36 | 0.0412 ± 0.00391 | CCc1nc(-c2ccccc2)c(C(=O)OC)c(CC)c1C(=O)SCCF [FEMe@SUPPY:2, methyl 4,6-diethyl-5-{[(2-fluoroethyl)sulfanyl]carbonyl}-2-phenylpyridine-3-carboxylate] |  | 
3 | 4.83 ± 0.01 |  | CCOC(=O)C1=C(C)NC(c2ccccc2)=C(C(=O)OCc2ccccc2)C1C#Cc1ccccc1 (centres unmarked) [MRS1191, 1,4-dihydro-2-methyl-6-phenyl-4-(phenylethynyl)-3,5-pyridinedicarboxylic acid, 3-ethyl 5-(phenylmethyl) ester, reference compound] |  | 
4 | 4.85 ± 0.01 | 0.0178 ± 0.00288 | CCCOC(=O)c1c(-c2ccccc2)nc(CC)c(C(=O)SCC)c1CCC [MRS1523, 2,3-ethyl-4,5-dipropyl-6-phenylpyridine-3-thiocarboxylate-5-carboxylate, reference compound] | 0.0189 ± 0.0041 | 

Further lines, the compound ahead of its results:

Row | Compound | chromatographic logD [1] | Ki [2] [µM] | Ki [3] [µM] | Kd [4] [µM]
5 | CCc1nc(-c2ccccc2)c(C(=O)OCCF)c(CC)c1C(=O)SCCF [(FE)^2@SUPPY, 2-fluoroethyl 4,6-diethyl-5-{[(2-fluoroethyl)sulfanyl]carbonyl}-2-phenylpyridine-3-carboxylate] | 3.95 ± 0.38 | 0.00805 ± 0.00177 |  | 
6 | CCc1nc(-c2ccccc2)c(C(=O)OC)c(CC)c1C(=O)SC [(Me)^2@SUPPY, methyl 4,6-diethyl-5-[(methylsulfanyl)carbonyl]-2-phenylpyridine-3-carboxylate] | 3.66 ± 0.33 | 0.0461 ± 0.00666 |  | 
7 | CCSC(=O)c1c(CC)nc(-c2ccccc2)c(C(=O)O)c1CC [DFE@SUPPY, 4,6-diethyl-5-[(ethylsulfanyl)carbonyl]-2-phenylpyridine-3-carboxylic acid] | 0.97 ± 0.37 | 0.114 ± 0.0169 |  | 
8 | CCSC(=O)c1c(CC)nc(-c2ccccc2)c(C(=O)OCCF)c1CC [FE@SUPPY, 5-(2-fluoroethyl)2,4-diethyl-3-(ethylsulfanylcarbonyl)-6-phenylpyridine-5-carboxylate] | 4.04 ± 0.36 | 0.00851 ± 0.00146 |  | 
9 | CNC(=O)[C@H]1O[C@@H](n2cnc3c(NCc4ccc(N)c(I)c4)ncnc32)[C@H](O)[C@@H]1O [[^125I]-AB-MECA, [^125I]-4-aminobenzyl-5′-N-methylcarboxamideoadenosine] |  |  |  | 0.00059 ± 2e-05
